Values after ≈ are worked out from the molar mass of the structure shown. Where two headings read alike, the source gives them in different places.
Key:
[1] = test system: Candida albicans TIMM 1768; assay: Inhibition test for Candida mycelial growth (crystal violet, checkerboard for combinations); format: cell-based; settings: for IC (at a 70% growth inhibitory concentration): checkerboard; for IC 70 (70% growth inhibitory concentration): alone, Candida mycelial growth; for improvement effect in the anticandidal activity against Candida mycelial growth: test reagent alone, concentration series
Experimental: A clinical isolate, Candida albicans TIMM 1768, held by the Teikyo University Medical Mycology Research Center was used as the Candida. This Candida was cultured for 20 hours at 37° C. on a Sabouraud Dextrose Agar culture plate. The multiplied bacterial cells were recovered, and then suspended in sterilized water so as to form Candida solutions whose bacterial count was adjusted to 5×10^3 cells/ml. Each sample was dissolved in advance in DMSO (dimethyl sulfoxide) so as to match the final concentration, and was then added to a 1/3 RPMI-1640 culture medium containing 2% calf serum so as to form sample solutions. 100 μL of both the sample solution (having a DSMO concentration in the culture medium of 0.5%) and the Candida bacterial solution were then placed respectively in each well of a 96-hole microplate (manufactured by Sumitomo Bakelite, Tokyo), and these were then cultured for three hours at 37° C. in a 5% carbon dioxide gas atmosphere. After three hours, the solutions in each well were discarded and the wells were cleaned. Subsequently, 200 μL of 1/3 RPMI-1640 was newly added to each well, and culturing was performed for 16 hours at 37° C. in a presence of 5% carbon dioxide gas. Once this culturing had ended, the solutions in each well were removed by suction, and the wells were washed using physiological saline. 200 μL of 70% ethanol was then injected so as to sterilize the Candida. After the ethanol had been removed, and the wells washed with tap water, 100 μL of a dye solution (i.e., a 0.1 M phosphate buffer containing 0.01% of dissolved crystal violet solution) was injected and left standing for 15 minutes. As a result, the Candida mycelia adhering to the surface of the wells were dyed.
After the wells were then washed with tap water so as to remove excess dye solution, 150 μL of […] containing 0.04 NHCL, and 50 μL of a 0.25% sodium dodecyl sulfate solution were then injected so as to free the coloring adhering to the bacterial cells. After the coloring had been freed, the plate was set in a multiscan photometer (i.e., a Multiskan FC, manufactured by Thermo Fisher Scientific Inc.), and the OD at 620 nm was measured in each well. The growth inhibition rate was then determined using the following formula. Growth inhibition rate (%)=(1−sample OD/subject OD)×100
The anticandidal activity synergistic effect provided by the combined use was evaluated using a checkerboard method. […] The experiment conditions and the measurement method and the like were the same as those employed for the mycelial growth test (i.e., Example 1).
The anticandidal activity synergistic effect obtained from a combined use was evaluated using a checkerboard method in the same way as in Example 2. […] The experiment conditions and the measurement method and the like were the same as those employed for the mycelial growth test (i.e., Example 1).
The anticandidal activity effect obtained from each test reagent was evaluated using a checkerboard method in the same way as in Example 2. […] The experiment conditions and the measurement method and the like were the same as those employed for the mycelial growth test (i.e., Example 1).

[2] = test system: Candida albicans TIMM 1768; assay: Oral candidiasis model in mice; format: in vivo, ICR strain mice; settings: day 2
Experimental: Using ICR strain mice (males, 6 weeks old, Charles River Laboratories, Japan) as the experimental animals, these mice were subcutaneously injected with 100 mg/kg of prednisolone as an immunosuppressant on the day prior to the candidiasis inoculation. Additionally, tap water containing 15 mg/ml of chlortetracycline hydrochloride was made freely available starting from that same day. On the day of the innoculation, in order to keep the mice in a resting state, 14.4 mg/kg of chlorpromazine hydrochloride (manufactured by Wako Pure Chemical Industries, Ltd.) was intramuscularly administered in advance. The bacterial strain and culturing method that were used were the same as in the Examples as far as the previous paragraph, and the multiplied bacterial cells were suspended in an RPMI-1640 culture medium containing 2% calf serum so as to form a bacterial solution whose bacterial count was adjusted to 2×10^8 cells/ml. […] Two days after the inoculation the mouse was euthanized, and the tongue symptom score was evaluated in accordance with a reference. […] A fixed quantity of this was then coated onto a Candida GS agar plate, and was cultured at 37° C. for 20 hours. The number of colonies appearing after this time was then measured. The number of viable Candida bacteria CFU (colony forming units) recovered from the relevant individuals was then calculated from the number of colonies.

Malassezia pachydermatis = assay: Anti-Malassezia fungal activity, agar dilution method; format: cell-based; settings: for Determination (mycelial growth rate taking control as 100): 7 days at 32° C.
Experimental: 100 μL lots of the test bacterial solution adjusted to McFarland 1.0 were coated over this Agar plate and were cultured for seven days at 32° C. Thereafter, the growth rate of the bacteria thereon were compared with a control (i.e., an MLNA culture medium containing no test additives) and their properties were determined. […] Note that if the mycelial growth rate of the control is taken as 100%, then when the mycelial growth rate in the test sample is 0%, this is determined to be [−], while if the mycelial growth rate in the test sample is 1 to 20%, this is determined to be [+], and if the mycelial growth rate in the test sample is 21 to 90%, this is determined to be […].

[3] = test system: Trichophyton mentagrophytes TIMM 2789; assay: In vitro inhibition test for Trichophyton (pour-plate, agar); format: cell-based; settings: cultured at 28° C.
Experimental: A clinical isolate, Trichophyton mentagrophytes TIMM 2789, held by the Teikyo University Medical Mycology Research Center was used as the Trichophyton. For the preculture process, this Trichophyton was extracted from low-temperature silica stock one week prior to the day of the test, and was cultured on a Sabouraud Dextrose Agar culture plate containing 50 μg/ml of chloramphenicol and 500 μg/ml of cycloheximide (such that these components were diluted to 1/10). This culturing was performed for one week at 28° C., and the bacteria were collected and used on the day of the test. The setting of the Trichophyton bacterial count was achieved by transferring the collected bacteria using a pour-plate method to a culture medium such that the final concentration was 10^3 cells/ml. In addition, the respective test samples were also transferred to a culture medium using a pour-plate method such that the final concentrations thereof were set to those shown in the table below. […] In the preparation, 1 ml of each test sample solution and 24 ml of RPMI-1640 culture medium were blended together, and prepared in a sterilized plastic Petri dish. The Trichophyton inoculation culture medium that was prepared in this manner was then cultured at 28° C. for four days, and the growth inhibitory effect of the mycelia after this culturing was observed and the properties thereof determined. The determinations were made both visually, and in the case of turbidity being present, by comparing the growth condition of the mycelia with a control (containing no test sample additives) via photomicrograph (at magnification ×40).
Results for the negativity and positivity of the bacteria obtained from each test sample are shown below in Table 6. Note that if the mycelial growth rate of the control is taken as 100%, then when the mycelial growth rate in the test sample is 0%, this is determined to be [−], while if the mycelial growth rate in the test sample is 1 to 20%, this is determined to be [+], and if the mycelial growth rate in the test sample is 21 to 90%, this is determined to be […]. Note that FIG. 15 and FIG. 16 are photographs showing states 7 days after colony formation of the Trichophyton in each test sample.

[4] = test system: Trichophyton mentagrophytes TIMM 2789; assay: as above; format: cell-based; settings: for MIC: Trichophyton mentagrophytes, read-out: MIC (minimum inhibitory concentration)
[5] = LYZOX used in combination with terpinen-4-ol
[6] = used in combination with decanoic acid
[7] = used in combination with terpinen-4-ol

CC1=CCC(O)(C(C)C)CC1 (stereo not shown) [Terpinen-4-ol, terpinen-4-ol]
IC (at a 70% growth inhibitory concentration) [1, 5]: 280 µg/mL
IC 70 (70% growth inhibitory concentration) [1]: 1900 µg/mL
viable bacteria count recovered from the oral cavity ([2]; T 10 mg/ml on tongue dorsum 3, 24, 27 h after inoculation): reduction in the viable bacterial count

LYZOX: complex formed by bonding lysozyme to chitosan (14000 Da) via a Maillard reaction; LYZOX is a registered trademark
Candida growth rate ([1]; 250 μg/ml): 0.9%
IC (at a 70% growth inhibitory concentration) [1, 5]: 60 µg/mL
IC 70 (70% growth inhibitory concentration) [1]: 193 µg/mL
improvement effect in the anticandidal activity against Candida mycelial growth [1]: improvement effect in the anticandidal activity against Candida mycelial growth was visible
improvement effect in the anticandidal activity from combined usage against Candida mycelial growth [1, 6]: remarkable improvement effect
improvement effect in the anticandidal activity from combined usage against Candida mycelial growth [1, 7]: remarkable improvement effect
tongue symptom score ([2]; L 20 mg/ml on tongue dorsum 3, 24, 27 h after inoculation): remarkable improvement effect
Determination (mycelial growth rate taking control as 100) (Malassezia pachydermatis; 0.05 mg/ml): +++ (91 to 100%)
Determination (mycelial growth rate taking control as 100) (Malassezia pachydermatis; 0.1 mg/ml): ++ (21 to 90%)
Determination (mycelial growth rate taking control as 100) (Malassezia pachydermatis; 0.5 mg/ml): − (0%)
Determination (mycelial growth rate taking control as 100) (Malassezia pachydermatis; 1 mg/ml): − (0%)
anti-Malassezia fungal activity against Malassezia fungi (Malassezia pachydermatis; summary of agar dilution and disk experiments): exhibited anti-Malassezia fungal activity
Determination (mycelial growth rate taking control as 100) ([3]; 1 mg/ml): +++ (91 to 100%)
Determination (mycelial growth rate taking control as 100) ([3]; 2.5 mg/ml): ++ (21 to 90%)
Determination (mycelial growth rate taking control as 100) ([3]; 5 mg/ml): ++ (21 to 90%)
Determination (mycelial growth rate taking control as 100) ([3]; 10 mg/ml): − (0%)
MIC (minimum inhibitory concentration) ([4]; LYZOX and decanoic acid used in combination): 100 µg/mL
MIC (minimum inhibitory concentration) ([4]; used alone): 10000 µg/mL

Lysozyme: simple lysozyme, unbonded component of the complex
improvement effect in the anticandidal activity against Candida mycelial growth [1]: no improvement effect
improvement effect in the anticandidal activity from combined usage against Candida mycelial growth [1, 6]: no improvement effect
improvement effect in the anticandidal activity from combined usage against Candida mycelial growth [1, 7]: no improvement effect
Determination (mycelial growth rate taking control as 100) (Malassezia pachydermatis; 0.05 mg/ml): +++ (91 to 100%)
Determination (mycelial growth rate taking control as 100) (Malassezia pachydermatis; 0.5 mg/ml): +++ (91 to 100%)
Determination (mycelial growth rate taking control as 100) ([3]; 2.5 mg/ml): +++ (91 to 100%)
Determination (mycelial growth rate taking control as 100) ([3]; 5 mg/ml): ++ (21 to 90%)

CCCCCCCCCC(=O)O [Decanoic acid, decanoic acid]
IC (at a 70% growth inhibitory concentration) ([1]; LYZOX used in combination with capric acid (decanoic acid)): 25 µg/mL
IC 70 (70% growth inhibitory concentration) [1]: 480 µg/mL
Determination (mycelial growth rate taking control as 100) (Malassezia pachydermatis; 0.1 mg/ml): +++ (91 to 100%)
Determination (mycelial growth rate taking control as 100) (Malassezia pachydermatis; 0.2 mg/ml): +++ (91 to 100%)
Determination (mycelial growth rate taking control as 100) (Malassezia pachydermatis; 1 mg/ml): +++ (91 to 100%)
Determination (mycelial growth rate taking control as 100) (Malassezia pachydermatis; 2 mg/ml): + (1 to 20%)
Determination (mycelial growth rate taking control as 100) ([3]; 0.8 mg/ml): +++ (91 to 100%)
Determination (mycelial growth rate taking control as 100) ([3]; 0.9 mg/ml): +++ (91 to 100%)
Determination (mycelial growth rate taking control as 100) ([3]; 1 mg/ml): ++ (21 to 90%)
Determination (mycelial growth rate taking control as 100) ([3]; 1.5 mg/ml): − (0%)
MIC ([4]; TIMM2789, LYZOX and decanoic acid used in combination): 200 µg/mL
MIC ([4]; TIMM2789, used alone): 1500 µg/mL (≈ 8.71 mM)
